Test results: patent US9295630B2, “Vitamin C complexes” (CENTRE NATIONAL DE LA RECHERCHE SCIENTIFIQUE, priority 2012, dated 2016)
Read-outs that look alike come from different tables or passages of the source.

Columns and labels:
Type in all cases: cell-based
[1] = system: neutral GAGs; assay: Expression of neutral GAGs in human skin explants (alcian blue/PAS staining); details: topical, D10, relative to control No. 0
Procedure: (§1) Explants of human skin with a diameter of about […], obtained from surgical waste from cosmetic surgery and more particularly from abdominoplasty of women about thirty years of age, are used. The human skin is kept alive in a usual nutrient medium at 37° C. in humid atmosphere, enriched with 5% CO2, for ten days.
(§2) The explants of human skin are treated using a gel according to the invention comprising the VitC-SQ complex or conjugate according to the invention obtained in example 1a formulated in squalene as described in example 3 to obtain compositions comprising 1 wt % and 3 wt % respectively, expressed as weight of vitamin C active ingredient relative to the total weight of the composition. To obtain values of 1% and 3% respectively, expressed as weight of vitamin C, the concentration of the VitC-SQ complex is adjusted accordingly.
(§3) These two active ingredients are used at a concentration of 1 wt % and 3 wt %, expressed as weight of vitamin C active ingredient relative to the total weight of the composition.
(§4) Each of the compositions tested is applied topically, at a rate of 2 mg per explant, on the explants of human skin using a spatula on day zero (DO), then at 1 day (D1), at 3 days (D3), at 6 days (D6) and finally at 8 days (D8).
(§5) On the tenth day, the explants treated with each of the compositions are taken and are submitted to the same conditions as the explants of control No. 0.
(§6) Neutral GAGs, reservoirs of the growth factors near the dermal-epidermal junction, and acid GAGs, essentially hyaluronic acid, are examined on paraffin sections after staining with alcian blue/PAS (Mowry staining)

[2] = system: type I collagen; assay: Expression of type I collagen in human skin explants (immunolabeling); details: gel at 3 wt % as vitamin C, topical, D10, relative to control No. 0
Procedure: (§7) For this assessment, only certain of the explants of human skin described above are used. More particularly, they are untreated explants (control No. 0) and explants treated with VitC-SQ according to the invention at 3 wt %, with free vitamin C at 3 wt % (control No. 1) and with VitC-palm at 3 wt % (control No. 2), expressed as weight of vitamin C active ingredient relative to the total weight of the composition.
(§8) The microscopic observations are carried out in light microscopy, using a Leica microscope, type DMLB, with x 40 objective. The images were recorded with an Olympus DP72 camera, using Olympus Cell^D acquisition and archiving software.
Type I collagen is labeled on frozen sections with a rabbit anti-human collagen I antibody (Monosan ref PS047, polyclonal), at 1/800th for 1 hour at room temperature with a biotin/streptavidin amplifier system, detected by fluorescence (FITC caltag SA 1001). The nuclei were counterstained with propidium iodide.

[3] = system: type III collagen; assay: Expression of type III collagen in human skin explants (immunolabeling); details: gel at 3 wt % as vitamin C, topical, D10, relative to control No. 0
Procedure: as §7, §8
Regarding the labeling of type III collagen, the latter is labeled on sections in paraffin (fixation with formol) with a goat anti-human collagen III polyclonal antibody (SBA ref: 1330-01), at 1/50th overnight at room temperature using a Vectastain RTU Universal VECTOR avidin/biotin amplifier system, detected in diaminobenzidine (DAB) with the nuclei counterstained with Masson's hemalum.

[4] = system: explants of human skin; assay: General morphology / acanthosis of human skin explants (Masson's trichrome staining); details: for dermal stimulation / epidermal stimulation: topical, D10, relative to control No. 0
Procedure: as §1, §2, §3, §4, §5
After 48 hours of fixation in ordinary Bouin, the samples are dehydrated and impregnated with paraffin using a Leica 1020 automatic dehydrator. Then they are made into a block according to procedure MO-H-153 using a Leica EG 1160 coating station.
5-μm sections are prepared using a Minot type microtome, Leica RM 2125, and are glued on superfrost silanized glass histology slides.
Microscopic observations are performed in light microscopy, using a Leica microscope of the Orthoplan type, with x 25 and x 40 objectives. The images are recorded with a Sony DXC 390P tri CCD camera and are stored using Leica IM1000 data archiving software.
Acanthosis of the skin, and more generally observation of the general morphology is carried out on sections in paraffin after staining with Masson's trichrome, Goldner's variant, according to procedure MO-H-157.

[5] = system: acid GAGs; assay: Expression of acid GAGs in human skin explants (alcian blue/PAS staining); details: topical, D10, relative to control No. 0
Procedure: as §1, §2, §3, §4, §5, §6

[6] = system: CCD34SK human fibroblasts; assay: Test of cellular viability (MTT assay); details: for IC50: 4 h incubation then 48 h, read-out: IC50 (loss of 50% in cellular viability)
Procedure: 10 000 cells of CCD34SK human fibroblasts per well were seeded in a 96-well plate.
The test products are added to the wells in different concentrations. After 4 h of incubation, the culture medium is replaced with new biological medium and the cells are incubated for 48h at 37° C. and 5% CO2.
Then, the culture medium is removed by inverting and 100 μL, of PBS/well with MTT at a concentration of 0.5 mg/ml is added. The plate is put back in the incubator for 2 h at 37° C. and 5% CO2. In order to dissolve the dark blue crystals of formazan that have formed, 100 μL of a solution of SDS (sodium dodecyl sulfate) is added to each well and then the plate is incubated again for 12 h at 37° C. and 5% CO2.
At the end of the 12 h, spectrophotometric measurements are carried out on an ELISA plate reader at a wavelength of 570 nm. The percentage viability of the cells in the presence of the test molecules is then calculated from the following formula: (mean OD of the treated cells—OD of control with medium only/mean OD of the control cells (100% viability)—OD of control with medium only)×100±standard deviation; or presented in the form of curves plotting the evolution of absorbance as a function of time.
The IC50 values (“inhibitory concentration 50%” or the concentration that inhibits growth of 50% of the cells) then correspond to a product concentration tested generating a loss of 50% in cellular viability (see Table below).

In the case of `O=C1OC(C(O)CO)C(O)=C1O` (centres unmarked) [Free vitamin C, 5-(1,2-dihydroxy-ethyl)-3,4-dihydroxy-5H-furan-2-one], the “overexpression of neutral GAGs” value ([1]; gel at 1 wt % as vitamin C) is reported as “No overexpression of neutral GAGs”, the “overexpression of neutral GAGs” value ([1]; gel at 3 wt % as vitamin C) is reported as “No overexpression of neutral GAGs” and the “expression of type I collagen” value [2] is reported as “No overexpression of type I collagen”. For the same compound, the “expression of type III collagen” value [3] was “No overexpression of type III collagen”, the “effect on skin explants (overall)” value ([4]; dose less than or equal to 3 wt % as vitamin C) was “no effect” and the dermal stimulation ([4]; gel at 1 wt % as vitamin C) was “No dermal stimulation”. The epidermal stimulation ([4]; gel at 1 wt % as vitamin C) was “No epidermal stimulation”, the dermal stimulation ([4]; gel at 3 wt % as vitamin C) was “Moderate dermal stimulation” and the epidermal stimulation ([4]; gel at 3 wt % as vitamin C) was “No epidermal stimulation”. For the same compound, the “overexpression of epidermal acid GAGs” value ([5]; gel at 1 wt % as vitamin C) was “No overexpression of epidermal acid” and the “overexpression of epidermal acid GAGs” value ([5]; gel at 3 wt % as vitamin C) was “No overexpression of epidermal acid”.

For `CC(C)=CCCC(C)=CCCC(C)=CCCC=C(C)CCC=C(C)CCC(=O)OC[C@H](O)[C@H]1OC(=O)C(O)=C1O` [VitC-SQ, 6-O-[4,8,13,17,21-pentamethyl-docosa-4,8,12,16,20-pentaenoyl] ascorbic acid], the “overexpression of neutral GAGs” value ([1]; gel at 1 wt % as vitamin C) was “Slight overexpression of neutral GAGs”, the “overexpression of neutral GAGs” value ([1]; gel at 3 wt % as vitamin C) was “Definite overexpression of neutral GAGs” and the “expression of type I collagen” value [2] was “Slight underexpression of type I collagen”. The “expression of type III collagen” value [3] was “Slight overexpression of type III collagen”, the “toxicity relative to VitC-palm” value [6] was “half as toxic as VitC-palm” and the IC50 ([6]; Fibroblast) was 600 µM. For the same compound, the “dermal and epidermal stimulation compared with VitC-Palm” value ([4]; at equivalent dose of vitamin C) was “greater than VitC-Palm”, the dermal stimulation ([4]; gel at 1 wt % as vitamin C) was “Moderate dermal stimulation” and the epidermal stimulation ([4]; gel at 1 wt % as vitamin C) was “Slight epidermal stimulation”. For the same compound, the dermal stimulation ([4]; gel at 3 wt % as vitamin C) was “Fairly definite dermal stimulation”, the epidermal stimulation ([4]; gel at 3 wt % as vitamin C) was “Definite epidermal stimulation” and the “overexpression of epidermal acid GAGs” value ([5]; gel at 1 wt % as vitamin C) was “No overexpression of the epidermal acid GAGs”. The “overexpression of epidermal acid GAGs” value ([5]; gel at 3 wt % as vitamin C) was “No overexpression of epidermal acid”.

`CCCCCCCCCCCCCCCC(=O)OC[C@H](O)[C@H]1OC(=O)C(O)=C1O` [VitC-palm, 6-ascorbyl palmitate] was tested, and the “overexpression of neutral GAGs” value ([1]; gel at 1 wt % as vitamin C) was “Slight overexpression of neutral GAGs”, the “overexpression of neutral GAGs” value ([1]; gel at 3 wt % as vitamin C) was “Very moderate overexpression of neutral” and the “expression of type I collagen” value [2] was “No overexpression of type I collagen”. For the same compound, the “expression of type III collagen” value [3] was “Very slight overexpression of type III”, the IC50 [6] was 250 µM and the dermal stimulation ([4]; gel at 1 wt % as vitamin C) was “No dermal stimulation”. The epidermal stimulation ([4]; gel at 1 wt % as vitamin C) was “No epidermal stimulation”, the dermal stimulation ([4]; gel at 3 wt % as vitamin C) was “Moderate dermal stimulation” and the epidermal stimulation ([4]; gel at 3 wt % as vitamin C) was “No epidermal stimulation”. The “overexpression of epidermal acid GAGs” value ([5]; gel at 1 wt % as vitamin C) was “No overexpression of epidermal acid” and the “overexpression of epidermal acid GAGs” value ([5]; gel at 3 wt % as vitamin C) was “No overexpression of epidermal acid”.
